The target of experiment [1] is T1, full-length beta-Catenin (Uniprot ID P35222) (Homo sapiens, UniProt P35222).
T1 construct: 10 nM full-length beta-Catenin (Uniprot ID P35222)
T1 sequence (P35222 1-781): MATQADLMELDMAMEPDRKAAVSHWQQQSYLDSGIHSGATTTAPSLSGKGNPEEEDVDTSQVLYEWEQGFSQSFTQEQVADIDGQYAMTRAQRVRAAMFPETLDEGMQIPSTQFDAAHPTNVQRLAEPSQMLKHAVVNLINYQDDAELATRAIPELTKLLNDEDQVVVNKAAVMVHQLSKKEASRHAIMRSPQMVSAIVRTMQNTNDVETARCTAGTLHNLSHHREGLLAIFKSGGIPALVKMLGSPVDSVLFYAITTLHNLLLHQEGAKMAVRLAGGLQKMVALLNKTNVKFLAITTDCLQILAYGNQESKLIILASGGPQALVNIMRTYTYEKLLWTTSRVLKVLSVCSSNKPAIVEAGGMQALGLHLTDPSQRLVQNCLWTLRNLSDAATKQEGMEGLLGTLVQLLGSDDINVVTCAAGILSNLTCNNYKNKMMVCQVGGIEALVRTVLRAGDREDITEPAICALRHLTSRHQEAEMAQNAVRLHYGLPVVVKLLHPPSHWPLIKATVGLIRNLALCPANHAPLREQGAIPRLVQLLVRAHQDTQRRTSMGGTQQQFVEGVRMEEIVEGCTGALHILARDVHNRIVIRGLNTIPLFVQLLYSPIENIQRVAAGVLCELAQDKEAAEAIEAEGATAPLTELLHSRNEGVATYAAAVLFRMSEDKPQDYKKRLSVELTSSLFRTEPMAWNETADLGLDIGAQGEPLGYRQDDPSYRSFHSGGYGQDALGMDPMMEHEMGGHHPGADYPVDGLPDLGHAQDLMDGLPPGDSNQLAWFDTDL
Briefly: Fluorescence polarization IC50 (beta-catenin / 5FAM-TCF4 10-53 competition). The experiment is classed as binding. The following applies: fluorescence polarization; read-out: beta-Catenin FP IC50.

Experiment [2] deals with T2, beta-catenin/TCF4 engagement (Homo sapiens, UniProt P35222).
T2 construct: expressed in transfected cells; host or cells: HEK293
T2 sequence (P35222 1-781): T1 sequence (P35222 1-781)
The experiment in a line: Nano-BRET target engagement assay (B-cat-Halo & TCF4-Luc in HEK293 cells). The class given is cell-based. The settings on record: absolute IC50; read-out: NanoBRET Abs IC50. On the technique in general: In BRET a luciferase serves as donor, and the signal depends on an acceptor being close.

Experiment [3] concerns COLO320DM cells. The experiment is classed as cell-based. The following applies: COLO320DM cells, absolute IC50; read-out: COLO320DM Proliferation Abs IC50. On the procedure: COLO320DM proliferation assay IC50: In some embodiments, inhibition of cell proliferation by provided technologies were assessed using cell lines related to or from certain conditions, disorders or diseases. In some embodiments, cell proliferation was assessed in COLO320DM cells. In some embodiments, assessment was performed using the following procedure: On Day 1, cultured COLO320DM cells in a T75 flask were trypsinized in 3 mL of 0.25% trypsin/EDTA for 5 min and quenched with 10 mL RPMI-1640+4% HI FBS assay media. The cells were spun down at 1200 rpm for 5 min, the cell pellet collected and re-suspended at 5000 cells/mL in assay media. Using a Combi liquid handler, cells were dispensed (50 uL, 250 cells/well) into three 384 well plates. Plates were incubated at 37° C., […]. On day 2, compounds were added. A liquid handling system was used to prepare the compound dilution and dispense compound into assay plates. The compounds were serially diluted 1/2 in 90% DMSO to create a 7 point dose curve. From compound plate, 100 nL of compound were dispensed directly into wells of the assay plates to create a dose curve starting at 20 uM and ending at 313 nM. Assay plates were incubated at 37° C., […]. On day 6, assay plates were removed from the incubator and allowed to sit at room temperature for 30 min. Using a liquid handler, 20 uL of CellTiter Glo reagent was added to each well. The assay plates were shaken for 2 min and allowed to sit on the bench for 10-15 minutes. The assay plates were read using the CellTiter Glo protocol on a GloMax microplate reader, and the data analyzed using GraphPad Prism.

Five molecules from patent US20240116985A1, “STAPLED PEPTIDES AND METHODS THEREOF” (priority 2020, published 2024) can be followed below.

Take `CC(=O)N1CCC[C@]12CC=CCCCC1(CCCC=CCCCOC(=O)N3CC[C@@](C(=O)N[C@@H](Cc4ccccc4C(F)(F)F)C(=O)N[C@@H](Cc4csc5ccccc45)C(=O)N[C@@H](C)C(N)=O)(C3)NC(=O)[C@H](CC(C)C)NC(=O)[C@H](Cc3ccccc3)NC(=O)[C@H](C)NC(=O)[C@H](CCC(=O)N3CCN(CC(F)(F)F)CC3)NC(=O)[C@H](Cc3cccc(C(=O)O)c3)NC(=O)[C@H](CC(=O)O)NC1=O)NC(=O)[C@H](CC(C)(C)C)NC(=O)[C@H](CC(=O)O)NC2=O` (stereo partly drawn) [I-2316, Ac-PL3-Asp-Npg-B5-Asp-3COOHF-[TfePpz]GlnR-Ala-Phe-Leu-PyrS2-2F3MeF-BztA-Ala-NH2]: the IC50 in experiment [1] was 0.011 µM; in experiment [2], 1.6 µM; in experiment [3], above 20 µM.

With `CC(=O)N1CCC[C@]12CC=CCCCC1(CCCC=CCCCOC(=O)N3CC[C@@](C(=O)N[C@@H](Cc4ccccc4C(F)(F)F)C(=O)N[C@@H](Cc4csc5ccccc45)C(=O)N[C@@H](C)C(N)=O)(C3)NC(=O)[C@H](CC(C)C)NC(=O)[C@H](Cc3ccccc3)NC(=O)[C@H](C)NC(=O)[C@H](CCC(=O)N3CCNC(=O)C3)NC(=O)[C@H](Cc3cccc(C(=O)O)c3)NC(=O)[C@H](CC(=O)O)NC1=O)NC(=O)[C@H](CC(C)(C)C)NC(=O)[C@H](CC(=O)O)NC2=O` (stereo partly drawn) [I-2318, Ac-PL3-Asp-Npg-B5-Asp-3COOHF-[2OxoPpz]GlnR-Ala-Phe-Leu-PyrS2-2F3MeF-BztA-Ala-NH2], the IC50 in experiment [1] was 0.005 µM; in experiment [2], 1.8 µM; in experiment [3] it was above 20 µM.

Turning to `CC(=O)N1CCC[C@]12CC=CCCCC1(CCCC=CCCCOC(=O)N3CC[C@@](C(=O)N[C@@H](Cc4ccccc4C(F)(F)F)C(=O)N[C@@H](Cc4csc5ccccc45)C(=O)N[C@@H](C)C(N)=O)(C3)NC(=O)[C@H](CC(C)C)NC(=O)[C@H](Cc3ccccc3)NC(=O)[C@H](C)NC(=O)[C@H](CCC(=O)N3Cc4ccccc4C3)NC(=O)[C@H](Cc3cccc(C(=O)O)c3)NC(=O)[C@H](CC(=O)O)NC1=O)NC(=O)[C@H](CC(C)(C)C)NC(=O)[C@H](CC(=O)O)NC2=O` (stereo partly drawn) [I-2320, Ac-PL3-Asp-Npg-B5-Asp-3COOHF-[isoindoline]GlnR-Ala-Phe-Leu-PyrS2-2F3MeF-BztA-Ala-NH2], the IC50 is 0.029 µM in experiment [1], 2.7 µM in experiment [2] and above 20 µM in experiment [3].

In the case of `COCCN(CCOC)C(=O)CC[C@@H]1NC(=O)[C@H](Cc2cccc(C(=O)O)c2)NC(=O)[C@H](CC(=O)O)NC(=O)C2(CCCC=CCCCOC(=O)N3CC[C@@](C(=O)N[C@@H](Cc4ccccc4C(F)(F)F)C(=O)N[C@@H](Cc4csc5ccccc45)C(=O)N[C@@H](C)C(N)=O)(C3)NC(=O)[C@H](CC(C)C)NC(=O)[C@H](Cc3ccccc3)NC(=O)[C@H](C)NC1=O)CCCC=CC[C@]1(CCCN1C(C)=O)C(=O)N[C@@H](CC(=O)O)C(=O)N[C@@H](CC(C)(C)C)C(=O)N2` (stereo partly drawn) [I-2322, Ac-PL3-Asp-Npg-B5-Asp-3COOHF-[bismethoxyethylamine]GlnR-Ala-Phe-Leu-PyrS2-2F3MeF-BztA-Ala-NH2], the IC50 in experiment [1] is 0.007 µM; in experiment [2], 1.8 µM; in experiment [3], above 20 µM.

On to `CC(=O)N1CCC[C@]12CC=CCCCC1(CCCC=CCCCOC(=O)N3CC[C@@](C(=O)N[C@@H](Cc4ccccc4C(F)(F)F)C(=O)N[C@@H](Cc4csc5ccccc45)C(=O)N[C@@H](CCC(N)=O)C(=O)N[C@@H](CC(C)C)C(=O)N[C@@H](CC(C)C)C(N)=O)(C3)NC(=O)[C@H](CC(C)C)NC(=O)[C@H](Cc3ccccc3)NC(=O)[C@H](C)NC(=O)[C@H](C)NC(=O)[C@H](Cc3cccc(C(=O)O)c3)NC(=O)[C@H](CC(=O)O)NC1=O)NC(=O)[C@H](CC(C)(C)C)NC(=O)[C@H](CC(=O)O)NC2=O` (stereo partly drawn) [I-2380, Ac-PL3-Asp-Npg-B5-Asp-3COOHF-Ala-Ala-Phe-Leu-PyrS2-2F3MeF-BztA-Gln-Leu-Leu-NH2], for which the IC50 in experiment [1] was 0.33 µM; in experiment [2], 2.7 µM; in experiment [3] it was above 20 µM.
